Results from patent publication US20130317092A1 (priority 2007, published 2013).

Key:
[1] = test system: Inducible Nitric Oxide Synthetase (iNOS); assay: iNOS by QRT-PCR in transfected primary human macrophages; format: cell-based; details: primary human macrophages transfected with LNA-modified oligo
Protocol: (§1) Primary human macrophages obtained from donors using methods which are well known in the art.
(§2) RT was performed using SuperScript III kit reagents (Invitrogen) as per kit instructions, and ABI-7900HT (Applied Biosystems) equipped with dedicated software (ver. 2) was used to amplify the resulting cDNA template (SYBR Green I RNA amplification kit, Roche). Triplicate values of each treatment were normalized to β-actin mRNA.

AChE-S mRNA = AChE-S mRNA by QRT-PCR in transfected primary human macrophages; format: cell-based; details: primary human macrophages transfected with LNA-modified oligo
Protocol: as §1
(§3) anti132 is set forth in CG+ACC+ATG+GCT+GTA+GAC+TGT+TA (SEQ ID NO: 109), anti182 is set forth in 5′T+AgT+Tgg+CAA+gTC+TAg+AAC+CA3′(SEQ ID NO: 110), whereby LNA modification is marked as + before the modified nucleotide.
as §2

IL-6 = IL-6 production by peritoneal macrophages from FVB/N and TgR mice; format: cell-based, mouse; details: 100 μM ACh
NFκB = NFκB localisation by immunohistochemistry in mouse bone marrow macrophages; format: cell-based; details: LPS, LPS+ACh
U937 cells = assay: Nitric oxide production (Griess) in U937 cells; format: cell-based, human; details: 24 h, 1 μg/ml LPS, 100 μM ACh
IL-12 = IL-12 production by peritoneal macrophages from FVB/N and TgR mice; format: cell-based, mouse
TNFα = TNFα production by peritoneal macrophages from FVB/N and TgR mice; format: cell-based, mouse
IL-1β, TNFα = IL-1β, TNFα production (ELISA) by bone marrow dendritic cells from FVB/N and TgR mice; format: cell-based, mouse; details: TgR dendritic cells, LPS and ACh
RAW 264.7 cells = assay: NO production of LPS-challenged RAW 264.7 cells transfected with miR mimics; format: cell-based, murine
Protocol: Murine RAW 264.7 macrophage-derived cell line known to express TLR4 and respond to endotoxin by production of pro-inflammatory mediators such as Nitric Oxide (NO), prostaglandins, and cytokines as ILE IL6, and TNFalpha were used (described in the preceding examples e.g., Examples 7 and 8). Cells were grown in 5 ml flasks in a humidified atmosphere in Dulbecco's modified Eagle's medium (DMEM, Biological Industries) supplemented with 10% fetal calf serum (FCS) and 2 mM L-glutamine at 37° C., 5% CO2.
Griess method was used to determine NO2 levels in medium in which macrophages had been cultured. 100 μl of each sample+100 μl of Griess reagent (1% sulfanilamide/0.1% naphthylethylenediamine dihydrochloride/2.5% H3PO4)—were incubated 10-20 min at room temperature. Read absorbance at 546 nm in micro-ELISA reader.
miR 132 and 182* (SEQ ID NOs: 54 and 93, respectively) were LNA modified (products are designated with SEQ ID NOs. 107 and 108, respectively). A locked nucleic acid (LNA), often referred to as inaccessible RNA, is a modified RNA. Ribose moiety of LNA nucleotide is modified with an extra bridge connecting 2′ and 4′ carbons. The bridge “locks” the ribose in 3′-endo structural conformation, which is often found in A-form of DNA or RNA. LNA nucleotides can be mixed with DNA or RNA bases in the oligonucleotide whenever desired. The locked ribose conformation enhances base stacking and backbone pre-organization.
electroporation and lipofection were used for cell transfection.
Oligos containing LNA modifications on every third base (Table 4) were obtained from Sigma-Proligo. Transfection was performed with Lipofectamine 2000 (Invitrogen, Carlsbad, Calif.) using 3 μg of oligo per sample. Briefly, cells were brought to 80%-90% confluence at the time of transfection. For each transfection sample, 3 μg oligo were diluted in 1 ml of RPMI-1640 while the lipofectamine reagent was diluted in 1 ml of RPMI-1640. After 5 minutes the diluted oligo and lipofectamine were combined and incubated for 20 minutes. This was added to the cells within the 75 ml flask, containing 6 ml RPMI complete+GM-CSF ([…] final oligo concentration). […]
To determine cell viability 40 μl of thiazolyl blue tetrazolium bromide (MTT) reagent (Sigma) at 5 mg/ml was added per sample well, incubated for 30 minutes at 37° C. Medium was removed, 400 μl of DMSO was added per well and absorbance read at 550 nm Griess method was used to determine NO2 levels in conditioned medium from macrophage cultures. […] Absorbance was read at 546 nm in a micro-ELISA reader. TNF-α, IL-6 levels were measured by Enzyme-Linked Immunosorbent Assay (ELISA) according to manufacturer's procedures (R&D Systems kits, MTA00, M6000B, respectively). All absorbance results were normalized using standard curves. […]

[2] = test system: 3′UTR fragment of human AChE cDNA; assay: Dot blot hybridization of LNA-modified oligos with PCR-amplified AChE 3′UTR; format: binding; details: 5′-32P-labeled LNA-modified oligos
Protocol: The common AChE 3′-UTR sequence was obtained from AY750146 (all mRNA sequence beginning from stop codon). 3′-UTR of AChE was amplified by RT-PCR using Promega reagents and total RNA isolated with QIAGEN RNeasy kit from post-mortem human brain, with primers including XhoI, NotI restriction sites in 5′ and 3′ primer, respectively. Primer sequences used were: (5′): […], (3′) (SEQ ID NO: 111): […] (SEQ ID NO: 112). Annealing temperature of 57° C. was used. PCR product was purified with QIAGEN QiaQuick kit, size of fragment verified in agarose gel, spotted on a dry HyBond nylon membrane in 2 ul drops, cross-linked to the membrane using 1200 mJ UV burst, and baked for 1 hr at 80° C. Membrane was blocked for at least 2 hours in solution containing 50% deionized formamide, 5×SSPE, 0.5% SDS, 5×Denhardt's Solution at 50° C.; and hybridized o/night in same conditions with 5′-32P-labeled probes mimicking miRs wholly or with mismatches as indicated, washed 4 times at 37° C. in 3×SSPE, 5% SDS, 10×Denhardt's solution; once at 42° C. in 1×SSPE, 1% SDS; exposed over up to 3 days to a PhosphorImager (Molecular Dynamics/GE Healthcare) plate, and signal quantified using FujiFilm's ImageGauge 4 software.

AChE-R mRNA = AChE-R mRNA by QRT-PCR in transfected primary human macrophages; format: cell-based; details: primary human macrophages transfected with LNA-modified oligo
Protocol: as §1, §3, §2

Molecule	iNOS expression [1]	AChE-S mRNA levels (AChE-S mRNA)	LPS-induced IL6 increase on co-administration of ACh (IL-6)	relocation of NFκB from the cytoplasm to the nucleus (NFκB)	nitric oxide (NO) levels (U937 cells)	IL-12 levels on co-administration of ACh with LPS (IL-12; TgR macrophages)	IL-12 levels on co-administration of ACh with LPS (IL-12; wild-type macrophages)	LPS-induced increase in TNFα on co-administration of ACh (TNFα)	up-regulation of inflammatory cytokines with ACh (IL-1β, TNFα)	activation of macrophage cell lines by LPS (NO production) after transfection (RAW 264.7 cells; LPS-exposed RAW-264.7 cells transfected with oligo (Example 13))	endotoxin response (NO production) after transfection (RAW 264.7 cells; RAW 264.7 cells transfected or electroporated, then endotoxin challenge (Example 11))	binding to PCR-amplified AChE 3′UTR (dot blot signal) [2]	AChE-R mRNA levels (AChE-R mRNA)
anti-132: LNA-modified reverse-complementary oligo CG+ACC+ATG+GCT+GTA+GAC+TGT+TA (CGACCATGGCTGTAGACTGTTA; LNA at 3, 6, 9, 12, 15, 18, 21, other sugars and backbone not given here)	up-regulation of Inducible Nitric Oxide Synthetase (iNOS)	increase in mRNA levels, albeit of the AChE-S variant alone											
CC(=O)OCC[N+](C)(C)C.[Cl-] [ACh, Acetylcholine chloride]			prevented this increase	significantly attenuated this effect	reduced NO levels, and blocked the LPS-induced increases	elevated in TgR macrophages	significantly lowered	significantly attenuated the LPS-induced increase in TNFα	not ACh-preventable				
miR-132 mimic: LNA-modified oligo mimicking miR-132: TA+ACA+GTC+TAC+AGC+CAT+GGT+CG (TAACAGTCTACAGCCATGGTCG; LNA at 3, 6, 9, 12, 15, 18, 21, other sugars and backbone not given here)		dramatic decline								significantly attenuate the activation of macrophage cell lines by LPS	significantly attenuate endotoxin response	significant binding to 20 ng doses of PCR product	dramatic decline
